From PMC4965013, “Open Source Drug Discovery with the Malaria Box Compound Collection for Neglected Diseases and Beyond” (PLoS Pathogens, 2016)
Read-outs that look alike come from different tables or passages of the source.

Legend:
P. falciparum 3D7 = test: [3H]-hypoxanthine growth inhibition, modified HCO3- or O2; type: cell-based; conditions: for IC50: Plasmodium falciparum
[1] = tested on: P. falciparum 3D7 trophozoites; test: Metabolomic fingerprint profiling LC-MS; type: cell-based, Plasmodium falciparum; set-up: UDP-D-glucose / ADP-D-glucose: unit not given here; conditions: for Acetyllysine / N-acetyl-L-ornithine / N-carbamoyl-L-aspartate / NADPH / dAMP / dCMP / dTDP / dTMP / dTTP / dihydroorotate / orotate / DLH / DLS/SDL/SID / PD / PEE / PVNF / 3-phosphoglycerate / ADP-D-glucose / ATP / CDP / D-sedoheptulose-1/7-phosphate / FAD / GMP / NAD+ / NADP+ / Octoluse Bisphosphate / Pyroglutamic acid / UDP-D-glucose / UDP-D-glucuronate / UDP-N-acetyl-glucosamine / UDP / UMP / UTP / a-ketoglutarate / citrate/isocitrate / cytidine / dATP / dGMP/AMP / fumarate / glucose-1/6-phosphate / glycerate / guanine / guanosine / hypoxanthine / indole / inosine / nicotinate / ornithine / phosphoenolpyruvate / pyruvate / ribose-phosphate / sarcosine/alanine / sn-glycerol-3-phosphate / succinate/methylmalonic acid / uridine / xanthosine: S2 Table Metabolomics; for Acetyllysine: metabolite Acetyllysine; for N-acetyl-L-ornithine: metabolite N-acetyl-L-ornithine; for N-carbamoyl-L-aspartate: metabolite N-carbamoyl-L-aspartate; for NADPH: metabolite NADPH; for dAMP: metabolite dAMP; for dCMP: metabolite dCMP; for dTDP: metabolite dTDP; for dTMP: metabolite dTMP; for dTTP: metabolite dTTP; for dihydroorotate: metabolite dihydroorotate; for orotate: metabolite orotate; for DLH: peptide DLH; for DLS/SDL/SID: peptide DLS/SDL/SID; for PD: peptide PD; for PEE: peptide PEE; for PVNF: peptide PVNF; for 3-phosphoglycerate: metabolite 3-phosphoglycerate; for ADP-D-glucose: metabolite ADP-D-glucose; for ATP: metabolite ATP; for CDP: metabolite CDP; for CDP / D-sedoheptulose-1/7-phosphate / GMP / Octoluse Bisphosphate / UDP / UMP / UTP / citrate/isocitrate / dGMP/AMP / fumarate / glucose-1/6-phosphate / glycerate / guanine / guanosine / inosine / pyruvate / sarcosine/alanine / succinate/methylmalonic acid / uridine / xanthosine: change in metabolite level after compound treatment; for D-sedoheptulose-1/7-phosphate: metabolite D-sedoheptulose-1/7-phosphate; for FAD: metabolite FAD; for GMP: metabolite GMP; for NAD+: metabolite NAD+; for NADP+: metabolite NADP+; for Octoluse Bisphosphate: metabolite Octoluse Bisphosphate; for Pyroglutamic acid: metabolite Pyroglutamic acid; for UDP-D-glucose: metabolite UDP-D-glucose; for UDP-D-glucuronate: metabolite UDP-D-glucuronate; for UDP-N-acetyl-glucosamine: metabolite UDP-N-acetyl-glucosamine; for UDP: metabolite UDP; for UMP: metabolite UMP; for UTP: metabolite UTP; for a-ketoglutarate: metabolite a-ketoglutarate; for citrate/isocitrate: metabolite citrate/isocitrate; for cytidine: metabolite cytidine; for dATP: metabolite dATP; for dGMP/AMP: metabolite dGMP/AMP; for fumarate: metabolite fumarate; for glucose-1/6-phosphate: metabolite glucose-1/6-phosphate; for glycerate: metabolite glycerate; for guanine: metabolite guanine; for guanosine: metabolite guanosine; for hypoxanthine: metabolite hypoxanthine; for indole: metabolite indole; for inosine: metabolite inosine; for 2_3-Diphosphoglyceric acid / 4-phosphopantothenate / 6-phospho-D-gluconate / FMN / IMP / Pyrophosphate / Sedoheptoluse bisphosphate / cyclic-AMP / glutathione disulfide / lactate / myo-inositol: metabolite level change after treatment; for nicotinate: metabolite nicotinate; for ornithine: metabolite ornithine; for phosphoenolpyruvate: metabolite phosphoenolpyruvate; for pyruvate: metabolite pyruvate; for ribose-phosphate: metabolite ribose-phosphate; for sarcosine/alanine: metabolite sarcosine/alanine; for sn-glycerol-3-phosphate: metabolite sn-glycerol-3-phosphate; for succinate/methylmalonic acid: metabolite succinate/methylmalonic acid; for uridine: metabolite uridine; for xanthosine: metabolite xanthosine
P. falciparum = test: EC50 listed in S2 Table Metabolomics (used to set the concentration tested); type: cell-based; conditions: Plasmodium falciparum; EC50 used for Factor_XEC50 in metabolomics; read-out: EC50_nM

## Oc1ccccc1CNCC12CC3CC(CC(C3)C1)C2 [MMV020788]
P. falciparum 3D7
  fold change (IC50normal/ IC50hypoxia): 2.2
P. falciparum 3D7; 3D7, read-out: P. falciparum 3D7 IC50 1% O2, 1% O2 hypoxia
  IC50: 63 nM
P. falciparum 3D7; 3D7, read-out: P. falciparum 3D7 IC50 5% O2
  IC50: 136 nM
[1]
  Acetyllysine: -2.885
  N-acetyl-L-ornithine: -2.954
  N-carbamoyl-L-aspartate: -1.526
  NADPH: 0.03625
  dAMP: 0.309
  dCMP: -0.3685
  dTDP: -0.06212
  dTMP: -0.1581
  dTTP: -0.254
  dihydroorotate: -1.002
  orotate: -1.435
  DLH: -2.982
  DLS/SDL/SID: -2.352
  PD: -3.15
  PEE: -2.856
  PVNF: -2.845
  3-phosphoglycerate: 0.739
  ADP-D-glucose: -0.1615
  ATP: -0.008574
  CDP: 0.1968
  D-sedoheptulose-1/7-phosphate: -0.6783
  FAD: -0.02526
  GMP: -0.06975
  NAD+: -0.1588
  NADP+: -0.008021
  Octoluse Bisphosphate: -0.4633
  Pyroglutamic acid: -0.07383
  UDP-D-glucose: 0.01367
  UDP-D-glucuronate: -0.09612
  UDP-N-acetyl-glucosamine: -0.01836
  UDP: -0.3321
  UMP: -0.241
  UTP: -0.2582
  a-ketoglutarate: -0.5092
  citrate/isocitrate: -0.2786
  cytidine: 0.02539
  dATP: -0.1887
  dGMP/AMP: 0.3187
  fumarate: -0.7339
  glucose-1/6-phosphate: -0.008522
  glycerate: -0.4973
  guanine: -0.3533
  guanosine: -0.149
  hypoxanthine: -0.5956
  indole: -0.4443
  inosine: -0.3499
  2_3-Diphosphoglyceric acid: 0.3339
  4-phosphopantothenate: -0.308
  6-phospho-D-gluconate: 0.001521
  FMN: -0.2331
  IMP: -0.5843
  Pyrophosphate: 0.1188
  Sedoheptoluse bisphosphate: -0.1032
  cyclic-AMP: -0.6828
  glutathione disulfide: -0.3605
  lactate: -0.4043
  myo-inositol: -0.5298
  nicotinate: -0.1476
  ornithine: -0.2765
  phosphoenolpyruvate: 0.5824
  pyruvate: 0.6752
  ribose-phosphate: 0.658
  sarcosine/alanine: -1.087
  sn-glycerol-3-phosphate: 0.6534
  succinate/methylmalonic acid: 0.06183
  uridine: -0.2427
  xanthosine: -0.4659
P. falciparum
  EC50: 22.6 nM

## CNCCCNc1ccnc2cc(Cl)ccc12 [MMV020500]
P. falciparum 3D7
  fold change (IC50reduced/IC50normal): 3.9
P. falciparum 3D7; 3D7, read-out: P. falciparum 3D7 IC50 HCO3- (2g/L), standard media
  IC50: 40 nM
P. falciparum 3D7; 3D7, HCO3- reduced media, read-out: P. falciparum 3D7 IC50 HCO3- reduced
  IC50: 155 nM
[1]
  Acetyllysine: -2.213
  N-acetyl-L-ornithine: -0.8185
  N-carbamoyl-L-aspartate: 0.6081
  NADPH: 0.8295
  dAMP: 1.814
  dCMP: 0.8961
  dTDP: 0.7101
  dTMP: 2.186
  dTTP: -0.2992
  dihydroorotate: 0.1598
  orotate: 0.0865
  DLH: -2.137
  DLS/SDL/SID: -0.7574
  PD: -1.597
  PEE: -0.2916
  PVNF: -1.612
  3-phosphoglycerate: 0.07452
  ADP-D-glucose: -0.08737
  ATP: -0.9785
  CDP: 0.5532
  D-sedoheptulose-1/7-phosphate: 1.176
  FAD: -0.249
  GMP: 1.138
  NAD+: 0.8214
  NADP+: -0.06525
  Octoluse Bisphosphate: -0.4524
  Pyroglutamic acid: 0.1099
  UDP-D-glucose: -0.02951
  UDP-D-glucuronate: -0.3318
  UDP-N-acetyl-glucosamine: 0.05445
  UDP: 0.8779
  UMP: 0.5345
  UTP: -0.9493
  a-ketoglutarate: 0.1415
  citrate/isocitrate: -0.9893
  cytidine: -0.1492
  dATP: -0.4735
  dGMP/AMP: 1.367
  fumarate: -0.1707
  glucose-1/6-phosphate: -0.009969
  glycerate: -0.6605
  guanine: 0.2615
  guanosine: -0.1451
  hypoxanthine: -0.2256
  indole: -0.03127
  inosine: 0.04049
  2_3-Diphosphoglyceric acid: -0.286
  4-phosphopantothenate: 0.7597
  6-phospho-D-gluconate: 0.1729
  FMN: 0.009843
  IMP: 0.8224
  Pyrophosphate: -0.4794
  Sedoheptoluse bisphosphate: -0.0186
  cyclic-AMP: 0.9961
  glutathione disulfide: -0.1428
  lactate: -0.3926
  myo-inositol: -0.6279
  nicotinate: 0.7754
  ornithine: -0.4966
  phosphoenolpyruvate: 0.07414
  pyruvate: -0.1857
  ribose-phosphate: -0.6716
  sarcosine/alanine: -0.5483
  sn-glycerol-3-phosphate: -0.4228
  succinate/methylmalonic acid: 0.4498
  uridine: -0.2827
  xanthosine: -0.8962
P. falciparum
  EC50: 82.2 nM

## Cc1ccc(Nc2nc(NCCO)c3ccccc3n2)cc1C [MMV001038]
[1]
  Acetyllysine: -1.736
  N-acetyl-L-ornithine: -0.8338
  N-carbamoyl-L-aspartate: 2.2667
  NADPH: 1.133
  dAMP: 0.6638
  dCMP: -0.6324
  dTDP: 0.5044
  dTMP: 1.028
  dTTP: -1.24
  dihydroorotate: 2.22
  orotate: -0.01519
  DLH: -3.038
  DLS/SDL/SID: -1.162
  PD: -0.2116
  PEE: -5.814
  PVNF: -1.547
  3-phosphoglycerate: 0.5584
  ADP-D-glucose: 0.41
  ATP: -0.8212
  CDP: -0.1382
  D-sedoheptulose-1/7-phosphate: 0.3347
  FAD: 0.9327
  GMP: 0.5554
  NAD+: 0.6377
  NADP+: 1.018
  Octoluse Bisphosphate: 0.3963
  Pyroglutamic acid: -0.8623
  UDP-D-glucose: 0.149
  UDP-D-glucuronate: 0.1087
  UDP-N-acetyl-glucosamine: 0.4035
  UDP: 0.7043
  UMP: -0.2063
  UTP: -0.5445
  a-ketoglutarate: -0.3007
  citrate/isocitrate: -0.768
  cytidine: 0.3191
  dATP: -1.248
  dGMP/AMP: 0.4665
  fumarate: -0.3966
  glucose-1/6-phosphate: 3.518
  glycerate: 0.8355
  guanine: -0.1055
  guanosine: -0.4181
  hypoxanthine: 0.2457
  indole: -0.2391
  inosine: 0.4136
  2_3-Diphosphoglyceric acid: 0.3981
  4-phosphopantothenate: 0.7744
  6-phospho-D-gluconate: -0.4519
  FMN: 0.7846
  IMP: 0.7773
  Pyrophosphate: -0.6549
  Sedoheptoluse bisphosphate: 0.6681
  cyclic-AMP: 0.8549
  glutathione disulfide: 0.7162
  lactate: 1.5312
  myo-inositol: 3.154
  nicotinate: -0.4211
  ornithine: -0.2093
  phosphoenolpyruvate: 0.02444
  pyruvate: 0.2652
  ribose-phosphate: 0.4889
  sarcosine/alanine: -0.4284
  sn-glycerol-3-phosphate: 0.01718
  succinate/methylmalonic acid: -0.401
  uridine: 0.3457
  xanthosine: -1.776
P. falciparum
  EC50: 428 nM
